Paper PMC8969271, “Release of moth pheromone compounds from Nicotiana benthamiana upon transient expression of heterologous biosynthetic genes” (BMC Biology, 2022)

Tests used:
Assay type in all cases: cell-based
CsupKPSE = biological target: T1, CsupKPSE (Chilo suppressalis, UniProt A0A5Q0V425); test: heterologous expression in yeast and N. benthamiana, GC/MS of fatty acid methyl esters; conditions: endogenous palmitic acid (acyl form in cells, presumably acyl-CoA); product (Z)-9-hexadecenoic acid
T1 construct: full-length ORF 1059 nt, 353 aa; synthesized gene; expressed in S. cerevisiae ole1/elo1 and N. benthamiana leaves
T1 sequence (A0A5Q0V425 20-371): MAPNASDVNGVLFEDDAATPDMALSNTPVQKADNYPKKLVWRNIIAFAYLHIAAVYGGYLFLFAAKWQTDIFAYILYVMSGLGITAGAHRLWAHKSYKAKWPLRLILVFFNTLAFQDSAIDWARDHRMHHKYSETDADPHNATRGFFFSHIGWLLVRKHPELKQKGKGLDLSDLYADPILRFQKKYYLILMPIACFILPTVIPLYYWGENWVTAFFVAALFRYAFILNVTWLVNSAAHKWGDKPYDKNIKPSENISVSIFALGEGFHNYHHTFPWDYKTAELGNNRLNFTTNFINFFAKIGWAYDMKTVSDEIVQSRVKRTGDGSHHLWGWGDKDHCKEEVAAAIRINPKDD

CsupFAR2 [1] = biological target: T2, CsupFAR2 (Chilo suppressalis, UniProt A0A3S2LS93); test: co-expression with CsupKPSE in N. benthamiana leaves, GC/MS of fatty alcohols; conditions: acyl form in cells, presumably acyl-CoA; product (Z)-9-hexadecenol
T2 construct: full-length ORF 1404 nt, 468 aa; synthesized gene; expressed in S. cerevisiae INVSc (pYES52) and N. benthamiana leaves
T2 sequence (A0A3S2LS93 1-468): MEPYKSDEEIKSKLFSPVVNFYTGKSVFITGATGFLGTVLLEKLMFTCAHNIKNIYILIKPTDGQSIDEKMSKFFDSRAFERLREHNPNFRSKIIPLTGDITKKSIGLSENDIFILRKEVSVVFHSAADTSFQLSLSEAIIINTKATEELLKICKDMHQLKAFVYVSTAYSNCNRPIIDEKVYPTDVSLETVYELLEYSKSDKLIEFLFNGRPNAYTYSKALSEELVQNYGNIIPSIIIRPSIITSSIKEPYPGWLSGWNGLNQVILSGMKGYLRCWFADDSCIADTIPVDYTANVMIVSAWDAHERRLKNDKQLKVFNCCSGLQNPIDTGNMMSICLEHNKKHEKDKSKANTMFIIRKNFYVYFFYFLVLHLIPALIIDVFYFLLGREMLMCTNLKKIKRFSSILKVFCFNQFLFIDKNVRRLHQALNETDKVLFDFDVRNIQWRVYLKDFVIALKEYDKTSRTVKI

CsupFAR2 [2] = biological target: T2, CsupFAR2; test: heterologous expression in yeast and N. benthamiana, GC/MS of fatty alcohols; conditions: yeast supplemented with methyl (Z)-11-hexadecenoate or co-expressing CsupYPAQ; acyl form in cells, presumably acyl-CoA; product (Z)-11-hexadecenol
ATF1 = biological target: T3, ATF1 (Saccharomyces cerevisiae, UniProt P40353); test: co-expression with desaturases and CsupFAR2 in N. benthamiana leaves, SPME and GC/MS; conditions: endogenous acetyl donor; product (Z)-11-hexadecenyl acetate
T3 construct: expressed transiently in N. benthamiana leaves with AtrΔ11, CpuFatB1, CsupYPAQ and CsupFAR2
T3 sequence (P40353 1-525): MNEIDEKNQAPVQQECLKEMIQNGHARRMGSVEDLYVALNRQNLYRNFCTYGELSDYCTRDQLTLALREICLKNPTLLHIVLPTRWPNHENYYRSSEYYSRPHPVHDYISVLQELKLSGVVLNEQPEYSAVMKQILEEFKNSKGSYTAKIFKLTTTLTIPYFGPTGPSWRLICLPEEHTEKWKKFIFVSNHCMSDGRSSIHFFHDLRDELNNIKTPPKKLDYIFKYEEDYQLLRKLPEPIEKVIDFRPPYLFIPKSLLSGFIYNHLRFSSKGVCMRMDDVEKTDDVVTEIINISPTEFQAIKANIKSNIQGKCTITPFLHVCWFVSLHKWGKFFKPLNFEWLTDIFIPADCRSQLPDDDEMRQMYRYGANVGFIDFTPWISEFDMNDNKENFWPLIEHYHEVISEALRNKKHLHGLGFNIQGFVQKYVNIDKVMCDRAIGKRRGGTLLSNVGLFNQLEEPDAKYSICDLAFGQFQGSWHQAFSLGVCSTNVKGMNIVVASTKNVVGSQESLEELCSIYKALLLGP

CCCCCCCCCCCCCCCC(=O)O [16:acid, palmitic acid]
heterologous expression in yeast and N. benthamiana, GC/MS of fatty acid methyl (CsupKPSE): CsupKPSE producing Z9-16:acid, the precursor of the minor pheromone component from palmitic acid

CCCCCC/C=C\CCCCCCCC(=O)O [Z9-16:acid, (Z)-9-hexadecenoic acid]
co-expression with CsupKPSE in N. benthamiana leaves, GC/MS of fatty alcohols (CsupFAR2 [1]): a minor amount of (Z)-9-hexadecenol (Z9-16:OH) was produced

CCCC/C=C\CCCCCCCCCC(=O)O [Z11-16:acid, (Z)-11-hexadecenoic acid]
heterologous expression in yeast and N. benthamiana, GC/MS of fatty alcohols (CsupFAR2 [2]): it reduced the C. suppressalis pheromone precursors Z11-16:acid, Z9-16:acid

CCCC/C=C\CCCCCCCCCCO [Z11-16:OH, (Z)-11-hexadecenol]
co-expression with desaturases and CsupFAR2 in N. benthamiana leaves, SPME and G (ATF1): Upon co-expression of the acetyltransferase gene ATF1, Z11-16:OAc was also released together with Z11-16:OH
